Tested on: RA patients
Test: Total cholesterol determination, Study 1 (RA patients with inadequate response to methotrexate, add-on to MTX)
Format: in vivo, human
Conditions: for [total cholesterol] Mean CFB / [Total cholesterol] Median CFB: Study 1 24 weeks results; for [total cholesterol] Mean percentage CFB - 24 weeks results: continued 25 mg b.i.d (N = 69)
Procedure: Double-blind, placebo-controlled add on study in subjects with moderately to severely active RA who have an inadequate response to methotrexate (MTX) (oral or parenteral).
595 subjects randomized to one of 6 dose regimens of Compound 1 (dosed as a [Compound 1:HCl:3H2O]) (3 dose levels administered either once or twice daily) or placebo on top of each subject's stable dose of MTX.
Compound 1 (dosed as a [Compound 1:HCl:3H2O]) is dosed for twelve weeks once daily (q.d.) (50 mg, 100 mg or 200 mg) or twice daily (b.i.d.) (25 mg, 50 mg or 100 mg); or placebo.
At Week 12, the subjects on placebo who have not achieved 20% improvement in swollen joint count (SJC66) and tender joint count (TJC68) are re-randomized automatically to receive Compound 1 (dosed as a [Compound 1:HCl:3H2O]) either at 100 mg q.d. or 50 mg b.i.d. doses in a blinded fashion; subjects on 50 mg q.d. who have not achieved 20% improvement in SJC66 and TJC68 will be assigned to 100 mg q.d. and subjects on 25 mg b.i.d. that have not achieved a 20% improvement in SJC66 and TJC68 will be assigned to 50 mg b.i.d. Subjects who switch treatment at week 12 are handled as if they discontinued at week 12 for the purpose of statistical analysis, whereas subjects in the other groups will maintain their randomized treatment until Week 24.
This method is based on the determination of Δ^4 cholestenone after enzymatic cleavage of the cholesterol ester by cholesterol esterase, conversion of cholesterol by cholesterol oxidase, and subsequent measurement by the Trinder reaction of the hydrogen peroxide formed (Allain et al., 1974).
Cholesterol esters are cleaved by the action of cholesterol esterase to yield free cholesterol and fatty acids. Cholesterol oxidase then catalyzes the oxidation of cholesterol to cholest-4-en-3-one and hydrogen peroxide. In the presence of peroxidase, the hydrogen peroxide formed effects the oxidative coupling of phenol and 4-aminophenazone to form a red quinone-imine dye. The color intensity of the dye formed is directly proportional to the cholesterol concentration. It is determined by measuring the increase in absorbance.
Human serum and plasma samples cholesterol determination was done on a Roche/Hitachi Cobas c 701/702 system which automatically calculate the analyte concentration of each sample.

[1] = placebo switched to 50 mg b.i.d at week 12, week 16
[2] = placebo switched to 50 mg b.i.d at week 12, week 20
[3] = placebo switched to 50 mg b.i.d at week 12, week 24

O=C(Nc1nc2cccc(-c3ccc(CN4CCS(=O)(=O)CC4)cc3)n2n1)C1CC1 [Compound 1, cyclopropanecarboxylic acid {5-[4-(1,1-dioxo-thiomorpholin-4-ylmethyl)-phenyl]-[1,2,4]triazolo[1,5-a]pyridin-2yl}-amide]
[total cholesterol] Mean CFB (continued 100 mg b.i.d., week 2): 0.36 mmol/L
[total cholesterol] Mean CFB (continued 100 mg b.i.d., week 4): 0.43 mmol/L
[total cholesterol] Mean CFB (continued 100 mg b.i.d., week 8): 0.64 mmol/L
[total cholesterol] Mean CFB (continued 100 mg b.i.d., week 12): 0.64 mmol/L
[total cholesterol] Mean CFB (continued 100 mg b.i.d., week 16): 0.56 mmol/L
[total cholesterol] Mean CFB (continued 100 mg b.i.d., week 20): 0.54 mmol/L
[total cholesterol] Mean CFB (continued 100 mg b.i.d., week 24): 0.66 mmol/L
[Total cholesterol] Median CFB (continued 100 mg q.d., week 1): 0.14 mmol/L
[total cholesterol] Mean CFB (continued 100 mg q.d., week 1): 0.15 mmol/L
[Total cholesterol] Median CFB (continued 100 mg q.d., week 2): 0.06 mmol/L
[total cholesterol] Mean CFB (continued 100 mg q.d., week 2): 0.10 mmol/L
[Total cholesterol] Median CFB (continued 100 mg q.d., week 4): 0.25 mmol/L
[total cholesterol] Mean CFB (continued 100 mg q.d., week 4): 0.23 mmol/L
[Total cholesterol] Median CFB (continued 100 mg q.d., week 8): 0.09 mmol/L
[total cholesterol] Mean CFB (continued 100 mg q.d., week 8): 0.14 mmol/L
[Total cholesterol] Median CFB (continued 100 mg q.d., week 12): 0.30 mmol/L
[total cholesterol] Mean CFB (continued 100 mg q.d., week 12): 0.23 mmol/L
[Total cholesterol] Median CFB (continued 100 mg q.d., week 16): 0.00 mmol/L
[total cholesterol] Mean CFB (continued 100 mg q.d., week 16): 0.06 mmol/L
[Total cholesterol] Median CFB (continued 100 mg q.d., week 20): 0.17 mmol/L
[total cholesterol] Mean CFB (continued 100 mg q.d., week 20): 0.13 mmol/L
[Total cholesterol] Median CFB (continued 100 mg q.d., week 24): 0.30 mmol/L
[total cholesterol] Mean CFB (continued 100 mg q.d., week 24): 0.21 mmol/L
[total cholesterol] Mean CFB (continued 200 mg q.d., week 1): 0.26 mmol/L
[total cholesterol] Mean CFB (continued 200 mg q.d., week 2): 0.29 mmol/L
[total cholesterol] Mean CFB (continued 200 mg q.d., week 4): 0.37 mmol/L
[total cholesterol] Mean CFB (continued 200 mg q.d., week 8): 0.44 mmol/L
[total cholesterol] Mean CFB (continued 200 mg q.d., week 12): 0.46 mmol/L
[total cholesterol] Mean CFB (continued 200 mg q.d., week 16): 0.37 mmol/L
[total cholesterol] Mean CFB (continued 200 mg q.d., week 20): 0.43 mmol/L
[Total cholesterol] Median CFB (continued 200 mg q.d., week 24): 0.37 mmol/L
[total cholesterol] Mean CFB (continued 200 mg q.d., week 24): 0.39 mmol/L
[total cholesterol] Mean CFB (increased from 25 mg b.i.d. to 50 mg b.i.d at 12 weeks, week 1): -0.05 mmol/L
[total cholesterol] Mean CFB (increased from 25 mg b.i.d. to 50 mg b.i.d at 12 weeks, week 2): -0.01 mmol/L
[total cholesterol] Mean CFB (increased from 25 mg b.i.d. to 50 mg b.i.d at 12 weeks, week 4): -0.26 mmol/L
[total cholesterol] Mean CFB (increased from 25 mg b.i.d. to 50 mg b.i.d at 12 weeks, week 8): -0.30 mmol/L
[total cholesterol] Mean CFB (increased from 25 mg b.i.d. to 50 mg b.i.d at 12 weeks, week 12): -0.13 mmol/L
[total cholesterol] Mean CFB (increased from 25 mg b.i.d. to 50 mg b.i.d at 12 weeks, week 16): 0.08 mmol/L
[total cholesterol] Mean CFB (increased from 25 mg b.i.d. to 50 mg b.i.d at 12 weeks, week 20): -0.44 mmol/L
[total cholesterol] Mean CFB (increased from 25 mg b.i.d. to 50 mg b.i.d at 12 weeks, week 24): -0.09 mmol/L
[total cholesterol] Mean CFB (increased from 50 mg q.d. to 100 mg q.d. at 12 weeks, week 1): 0.05 mmol/L
[total cholesterol] Mean CFB (increased from 50 mg q.d. to 100 mg q.d. at 12 weeks, week 2): 0.26 mmol/L
[total cholesterol] Mean CFB (increased from 50 mg q.d. to 100 mg q.d. at 12 weeks, week 4): 0.11 mmol/L
[total cholesterol] Mean CFB (increased from 50 mg q.d. to 100 mg q.d. at 12 weeks, week 8): 0.10 mmol/L
[total cholesterol] Mean CFB (increased from 50 mg q.d. to 100 mg q.d. at 12 weeks, week 12): 0.10 mmol/L
[total cholesterol] Mean CFB (increased from 50 mg q.d. to 100 mg q.d. at 12 weeks, week 16): 0.37 mmol/L
[total cholesterol] Mean CFB (increased from 50 mg q.d. to 100 mg q.d. at 12 weeks, week 20): 0.34 mmol/L
[total cholesterol] Mean CFB (increased from 50 mg q.d. to 100 mg q.d. at 12 weeks, week 24): 0.25 mmol/L
[Total cholesterol] Median CFB [1]: 0.25 mmol/L
[total cholesterol] Mean CFB [1]: 0.08 mmol/L
[Total cholesterol] Median CFB [2]: 0.25 mmol/L
[total cholesterol] Mean CFB [2]: 0.18 mmol/L
[Total cholesterol] Median CFB [3]: 0.36 mmol/L
[total cholesterol] Mean CFB [3]: 0.06 mmol/L
[total cholesterol] Mean CFB (placebo switched to 100 mg q.d. at week 12, week 16): -0.16 mmol/L
[total cholesterol] Mean CFB (placebo switched to 100 mg q.d. at week 12, week 20): -0.17 mmol/L
[total cholesterol] Mean CFB (placebo switched to 100 mg q.d. at week 12, week 24): -0.26 mmol/L
[total cholesterol] Mean percentage CFB - 24 weeks results (week 1): 2.56%
[total cholesterol] Mean percentage CFB - 24 weeks results (week 2): 3.22%
[total cholesterol] Mean percentage CFB - 24 weeks results (week 4): 4.05%
[total cholesterol] Mean percentage CFB - 24 weeks results (week 8): 4.25%
